Data as given in patent US8980926B2, “2-aminoindole compounds and methods for the treatment of malaria” (Genzyme Corporation, priority 2009, dated 2015).

Tested on: P. falciparum strain 3D7
Assay: In vitro potency against P. falciparum strain 3D7 (SYBR green/DAPI)
Assay type: cell-based
Settings: Plasmodium falciparum, reductions in parasitemia, read-out: IC50 values

CCCCc1ccc2c(c1)C(O)(c1ccccc1)C(N)=N2 (stereo not drawn) [Compound 48]
IC50: 500 to 1000 nM

NC1=Nc2ccc(Cl)cc2C1(O)c1ccccn1 (stereo not drawn) [Compound 49]
IC50: 1000 to 5000 nM

NC1=Nc2cc(Cl)c(Cl)cc2C1(O)c1ccccc1 (stereo not drawn) [Compound 51]
IC50: 500 to 1000 nM

NC1=Nc2cc(Cl)cc(Cl)c2C1(O)c1ccccc1 (stereo not drawn) [Compound 52]
IC50: 1000 to 5000 nM

CC(C)c1ccc2c(c1)C(O)(c1ccccc1)C(N)=N2 (stereo not drawn) [Compound 53]
IC50: 500 to 1000 nM

CC(C)CC1(O)C(N)=Nc2ccc(Cl)cc21 (stereo not drawn) [Compound 54]
IC50: 100 to 500 nM

NC1=Nc2c(Cl)cc(Cl)cc2C1(O)c1ccccc1 (stereo not drawn) [Compound 55]
IC50: 1000 to 5000 nM

COc1cc2c(cc1OC)C(O)(c1ccccc1)C(N)=N2 (stereo not drawn) [Compound 56]
IC50: 100 to 500 nM

NC1=Nc2cc3c(cc2C1(O)c1ccccc1)OCO3 (stereo not drawn) [Compound 57]
IC50: 100 to 500 nM

NC1=Nc2ccc(Cl)cc2C1(O)c1cccc2cccnc12 (stereo not drawn) [Compound 58]
IC50: 100 to 500 nM

NC1=Nc2ccc(Cl)cc2C1(O)c1cccc2ncccc12 (stereo not drawn) [Compound 59]
IC50: 100 to 500 nM

NC1=Nc2ccc(Cl)cc2C1(O)c1nccs1 (stereo not drawn) [Compound 60]
IC50: 1000 to 5000 nM

COc1ccc2c(c1)C(O)(c1cc(OC)cc3ccccc13)C(N)=N2 (stereo not drawn) [Compound 61]
IC50: 5000 to 15000 nM

NC1=Nc2ccc(O)cc2C1(O)c1ccccc1 (stereo not drawn) [Compound 62]
IC50: 5000 to 15000 nM

COc1cc(C2(O)C(N)=Nc3ccc(C)cc32)c2ccccc2c1 (stereo not drawn) [Compound 63]
IC50: 5000 to 15000 nM

CCOc1nc(Cl)ccc1C1(O)C(N)=Nc2ccc(C)cc21 (stereo not drawn) [Compound 64]
IC50: 5000 to 15000 nM

NC1=Nc2ccc(OCc3ccccc3)cc2C1(O)c1ccccc1 (stereo not drawn) [Compound 65]
IC50: 5000 to 15000 nM

NC1=Nc2ncccc2C1(O)c1ccccc1 (stereo not drawn) [Compound 66]
IC50: 5000 to 15000 nM

NC1=Nc2ccc(Cl)cc2C1(O)c1cccc2c1OCC2 (stereo not drawn) [Compound 67]
IC50: 1 to 100 nM

CN(C)c1ccc(C2(O)C(N)=Nc3ccc(Cl)cc32)c2ccccc12 (stereo not drawn) [Compound 68]
IC50: 1 to 100 nM

NC1=Nc2ccc(Cl)cc2C1(O)c1cccc2c1oc1ccccc12 (stereo not drawn) [Compound 69]
IC50: 100 to 500 nM

COc1ccccc1C1(O)C(N)=Nc2ccc(Cl)cc21 (stereo not drawn) [Compound 70]
IC50: 1 to 100 nM

Cc1ccccc1C1(O)C(N)=Nc2ccc(Cl)cc21 (stereo not drawn) [Compound 71]
IC50: 1 to 100 nM

COc1ccc(C2(O)C(N)=Nc3ccc(Cl)cc32)cc1 (stereo not drawn) [Compound 72]
IC50: 500 to 1000 nM

COc1cccc(C2(O)C(N)=Nc3ccc(Cl)cc32)c1OC (stereo not drawn) [Compound 73]
IC50: 1 to 100 nM

NC1=Nc2ccc(Cl)cc2C1(O)CCc1ccccc1 (stereo not drawn) [Compound 74]
IC50: 100 to 500 nM

CC(C)(C)C1(O)C(N)=Nc2ccc(Cl)cc21 (stereo not drawn) [Compound 75]
IC50: 100 to 500 nM

CC(C)Oc1ccc2c(c1)C(O)(c1ccccc1)C(N)=N2 (stereo not drawn) [Compound 76]
IC50: 100 to 500 nM

NC1=Nc2cc3c(cc2C1(O)c1ccccc1)OCCO3 (stereo not drawn) [Compound 77]
IC50: 100 to 500 nM

COc1ccc(C2(O)C(N)=Nc3ccc(Cl)cc32)c2ccccc12 (stereo not drawn) [Compound 78]
IC50: 1 to 100 nM

NC1=Nc2ccc(Cl)cc2C1(O)c1ccncc1 (stereo not drawn) [Compound 79]
IC50: 1000 to 5000 nM

CN(C)c1ccccc1C1(O)C(N)=Nc2ccc(Cl)cc21 (stereo not drawn) [Compound 80]
IC50: 1 to 100 nM

NC1=Nc2ccc(Cl)cc2C1(O)c1cccc2cnccc12 (stereo not drawn) [Compound 81]
IC50: 100 to 500 nM

NC1=Nc2ccc(Cl)cc2C1(O)c1cccc2ccsc12 (stereo not drawn) [Compound 82]
IC50: 1 to 100 nM

NC1=Nc2ccc(Cl)cc2C1(O)c1ccc(F)cc1 (stereo not drawn) [Compound 83]
IC50: 100 to 500 nM

Cc1cccc(C2(O)C(N)=Nc3ccc(Cl)cc32)c1C (stereo not drawn) [Compound 84]
IC50: 100 to 500 nM

NC1=Nc2ccc(Cl)cc2C1(O)c1ccc(O)cc1 (stereo not drawn) [Compound 85]
IC50: 5000 to 15000 nM

COc1ccc(C2(O)C(N)=Nc3ccc(Cl)cc32)c(OC)c1 (stereo not drawn) [Compound 86]
IC50: 1 to 100 nM

NC1=Nc2ccc(-c3ccccc3)cc2C1(O)c1ccccc1 (stereo not drawn) [Compound 87]
IC50: 100 to 500 nM

N#Cc1ccc2c(c1)C(O)(c1ccccc1)C(N)=N2 (stereo not drawn) [Compound 88]
IC50: 1000 to 5000 nM

NC1=Nc2ccc(Cl)cc2C1(O)c1ccccc1F (stereo not drawn) [Compound 89]
IC50: 100 to 500 nM

Cc1ccc(C2(O)C(N)=Nc3ccc(Cl)cc32)c(C)c1 (stereo not drawn) [Compound 90]
IC50: 100 to 500 nM

NC1=Nc2ccc(Cl)cc2C1(O)C1CC1 (stereo not drawn) [Compound 91]
IC50: 100 to 500 nM

NC1=Nc2ccc(CCc3ccccc3)cc2C1(O)c1ccccc1 (stereo not drawn) [Compound 92]
IC50: 100 to 500 nM

NC1=Nc2ccc(CCCC3CCCCC3)cc2C1(O)c1ccccc1 (stereo not drawn) [Compound 93]
IC50: 100 to 500 nM

NC1=Nc2ccc(Cl)cc2C1(O)c1cccc2nsnc12 (stereo not drawn) [Compound 94]
IC50: 1000 to 5000 nM

NC1=Nc2ccc(Cl)cc2C1(O)c1cccc(F)c1F (stereo not drawn) [Compound 95]
IC50: 100 to 500 nM

NC1=Nc2ccc(Cl)cc2C1(O)c1ccccc1C(F)(F)F (stereo not drawn) [Compound 96]
IC50: 1 to 100 nM

CCc1ccccc1C1(O)C(N)=Nc2ccc(Cl)cc21 (stereo not drawn) [Compound 97]
IC50: 1 to 100 nM

NC1=Nc2ccc(Cl)cc2C1(O)c1ccc(Cl)cc1 (stereo not drawn) [Compound 98]
IC50: 100 to 500 nM

NC1=Nc2ccc(-c3cccnc3)cc2C1(O)c1ccccc1 (stereo not drawn) [Compound 99]
IC50: 5000 to 15000 nM

NC(=O)c1ccc2c(c1)C(O)(c1ccccc1)C(N)=N2 (stereo not drawn) [Compound 100]
IC50: 5000 to 15000 nM

CS(=O)(=O)c1ccc2c(c1)C(O)(c1ccccc1)C(N)=N2 (stereo not drawn) [Compound 101]
IC50: 5000 to 15000 nM

NC1=Nc2ccc(Cl)cc2C1(O)c1ccc(C(=O)O)cc1 (stereo not drawn) [Compound 102]
IC50: 5000 to 15000 nM

CC(=O)Nc1ccccc1C1(O)C(N)=Nc2ccc(Cl)cc21 (stereo not drawn) [Compound 103]
IC50: 5000 to 15000 nM

COc1ccc(C#Cc2ccc3c(c2)C(O)(c2ccccc2)C(N)=N3)cc1 (stereo not drawn) [Compound 104]
IC50: 100 to 500 nM

NC1Nc2ccc(-c3nccs3)cc2C1(O)c1ccccc1 (stereo not drawn) [Compound 105]
IC50: 100 to 500 nM

COc1ccc(CCc2ccc3c(c2)C(O)(c2ccccc2)C(N)=N3)cc1 (stereo not drawn) [Compound 106]
IC50: 100 to 500 nM

NC1=Nc2ccc(Cl)cc2C1(O)c1cncc2ccccc12 (stereo not drawn) [Compound 107]
IC50: 100 to 500 nM

NC1=Nc2ccc(Cl)cc2C1(O)c1ccnc2ccccc12 (stereo not drawn) [Compound 108]
IC50: 100 to 500 nM

N#Cc1ccccc1C1(O)C(N)=Nc2ccc(Cl)cc21 (stereo not drawn) [Compound 109]
IC50: 5000 to 15000 nM

COC(=O)c1ccc2c(c1)C(O)(c1ccccc1)C(N)=N2 (stereo not drawn) [Compound 110]
IC50: 500 to 1000 nM

Cn1ccc2cccc(C3(O)C(N)=Nc4ccc(Cl)cc43)c21 (stereo not drawn) [Compound 111]
IC50: 1 to 100 nM

Cc1cc(C)cc(C2(O)C(N)=Nc3ccc(Cl)cc32)c1 (stereo not drawn) [Compound 112]
IC50: 100 to 500 nM

NC1=Nc2ccc(Cl)cc2C1(O)c1ccccc1Cl (stereo not drawn) [Compound 113]
IC50: 100 to 500 nM

NC1=Nc2ccc(Cl)cc2C1(O)c1ccccc1-c1ccccc1Cl (stereo not drawn) [Compound 114]
IC50: 100 to 500 nM

NC1=Nc2ccc(Cl)cc2C1(O)c1ccccc1-c1ccccc1Br (stereo not drawn) [Compound 115]
IC50: 1 to 100 nM

NC1=Nc2ccc(Cl)cc2C1(O)C1CCCCC1 (stereo not drawn) [Compound 116]
IC50: 100 to 500 nM

NC1=Nc2ccc(Cl)cc2C1(O)c1cccc2ccncc12 (stereo not drawn) [Compound 117]
IC50: 100 to 500 nM

NC1=Nc2ccc(Cl)cc2C1(O)c1ccccc1Br (stereo not drawn) [Compound 118]
IC50: 100 to 500 nM

NC1=Nc2ccc(Cl)cc2C1(O)c1ccccc1N1CCOCC1 (stereo not drawn) [Compound 119]
IC50: 1 to 100 nM

CS(=O)(=O)c1ccccc1C1(O)C(N)=Nc2ccc(Cl)cc21 (stereo not drawn) [Compound 120]
IC50: 500 to 1000 nM

CSc1ccccc1C1(O)C(N)=Nc2ccc(Cl)cc21 (stereo not drawn) [Compound 121]
IC50: 1 to 100 nM

COc1ccccc1C1(O)C(N)=Nc2ccc(C)cc21 (stereo not drawn) [Compound 122]
IC50: 100 to 500 nM

COc1ccccc1C1(O)C(N)=Nc2ccc(Br)cc21 (stereo not drawn) [Compound 123]
IC50: 1 to 100 nM

NC1=Nc2ccc(Br)cc2C1(O)Cc1ccccc1 (stereo not drawn) [Compound 124]
IC50: 100 to 500 nM

C#Cc1ccc2c(c1)C(O)(c1ccc(C3(c4ccccc4)OCCO3)cc1)C(N)=N2 (stereo not drawn) [Compound 125]
IC50: 100 to 500 nM

COc1ccc(CC2(O)C(N)=Nc3ccccc32)cc1 (stereo not drawn) [Compound 126]
IC50: 100 to 500 nM

NC1=Nc2cccc(Cl)c2C1(O)c1cccc2ccccc12 (stereo not drawn) [Compound 127]
IC50: 500 to 1000 nM

Cn1cc(CC2(O)C(N)=Nc3ccccc32)c2ccccc21 (stereo not drawn) [Compound 128]
IC50: 100 to 500 nM

NC1=Nc2ccc(Cl)cc2C1(O)c1ccccc1-c1ccccc1 (stereo not drawn) [Compound 129]
IC50: 100 to 500 nM

NC1=Nc2ccc(Cl)cc2C1(O)c1ccccc1N1CCCCC1 (stereo not drawn) [Compound 130]
IC50: 100 to 500 nM

Cc1ccc2c(c1)C(O)(Cc1ccccc1)C(N)=N2 (stereo not drawn) [Compound 131]
IC50: 1 to 100 nM

COc1ccc2c(c1)C(O)(c1ccccc1OC)C(N)=N2 (stereo not drawn) [Compound 132]
IC50: 100 to 500 nM

COc1ccc2c(c1)C(O)(Cc1ccccc1)C(N)=N2 (stereo not drawn) [Compound 133]
IC50: 1 to 100 nM

COc1ccccc1CC1(O)C(N)=Nc2ccc(Cl)cc21 (stereo not drawn) [Compound 134]
IC50: 1 to 100 nM

Cn1ncc2cccc(C3(O)C(N)=Nc4ccc(Cl)cc43)c21 (stereo not drawn) [Compound 135]
IC50: 1 to 100 nM

Cc1csc2c(C3(O)C(N)=Nc4ccc(Cl)cc43)cccc12 (stereo not drawn) [Compound 136]
IC50: 1 to 100 nM

NC1=Nc2ccc(Cl)cc2C1(O)c1nc2ccccc2s1 (stereo not drawn) [Compound 137]
IC50: 100 to 500 nM

Cn1ncc2ccc(C3(O)C(N)=Nc4ccc(Cl)cc43)cc21 (stereo not drawn) [Compound 138]
IC50: 100 to 500 nM
